Reference: patent US10363298B2, “Immunomodulatory compounds” (priority 2014, dated 2019)
Like-named read-outs stand apart in the source and are kept apart here.

Assays:
[1] = target: VcCBMTD (CBM of V. cholerae NanH sialidase, residues 25-216, SEQ ID NO: 2, fused to trimerisation domain of P. aeruginosa pseudaminidase, residues 333-438, SEQ ID NO: 6) (Vibrio cholerae, UniProt A5F7A4); assay: Surface plasmon resonance (Biacore T-100): binding to immobilized multivalent, biotinylated α-2,3-sialyllactose-PAA; details: mean ± s.d. of three replicates
Source text: (§1) Tandem-repeat multivalent protein, Vc4CBM, based on the Family 40^31 sialic acid binding domain (CBM) of the nanH gene encoding the sialidase from V. cholerae, was generated using PCR-based cloning techniques as described previously^8. Oligomerisation of the CBM domain from V. cholerae nanH sialidase, and from S. pneumoniae nanA sialidase, using the trimerisation domain from the pseudaminidase protein from Pseudomonas aeruginosa was engineered as follows: the DNA fragments encoding the CBM of V. cholerae sialidase residues 25-216, and that of S. pneumoniae nanA sialidase residues 121-305, respectively, were modified at the 5′ and 3′ termini by PCR amplification using primer pairs (Table 3) to incorporate different restriction sites to link one or two copies of the CBM unit in tandem for subsequent ligation to the gene encoding the trimerization domain from P. aeruginosa pseudaminidase residues 333-438 (PaTD). The resulting fragments were cloned either into an appropriately digested pEHISTEV vector (for VcCBM fragments) or pEGFP-HISTEV vector (for SpCBM fragments) to create constructs designated as VcCBMTD, Vc2CBMTD, SpCBMTD and Sp2CBMTD, respectively (FIG. 1). […] All constructs were propagated in E. coli DH5a cells, and constructs were verified by DNA sequencing, before transforming the expression host E. coli BL21 Gold (DE3) for protein production.
(§2) Expression of engineered mCBMs was performed as described previously^8 with some modifications. Briefly, E. coli cells containing either His-tagged VcCBMs or GFP-His-tagged SpCBMs were lysed in a buffer containing PBS, 0.3M NaCl and 10 mM imidazole with DNAase (20 μg/ml) and protease (minus EDTA) inhibitor tablets (Roche). Clarified lysates were applied onto a HisTrap HP column, pre-charged with nickel (GE Healthcare) before elution of histidine-tagged CBMs using PBS containing 0.3 M NaCl and 250 mM imidazole. Removal of tag, unless otherwise stated, was performed by digestion in situ with TEV protease overnight before re-applying material to the nickel column. All mCBM proteins were further purified using size exclusion chromatography with a HiPrep 16/60 Sephacryl S200HR column (GE Healthcare) in PBS before using either a Vivapure S Maxi H (VcCBMs) or Q Maxi H (SpCBMs) column (Sartorius) to remove endotoxins. GFP-tagged proteins were also subjected to affinity chromatography and size exclusion chromatography as described above. […] Protein purity and size were verified by 12% SDS polyacrylamide gel electrophoresis and mass spectrometry. Purified mCBMs binding to sialic acid was verified by surface plasmon resonance (Biacore T-100, University of Edinburgh) using a streptavidin-coated biosensor chip immobilized with a multivalent, biotinylated α-2,3-sialyllactose-PAA (Glycotech) (Table 1).

[2] = target: multivalent forms of VcCBM and SpCBM; assay: Surface plasmon resonance, summary statement for the multivalent forms; details: read-out: dissociation constants, SPR
Source text: Tandem-repeat multivalent protein, Vc4CBM, based on the Family 40^31 sialic acid binding domain (CBM) of the nanH gene encoding the sialidase from V. cholerae, was generated using PCR-based cloning techniques as described previously^8. Oligomerisation of the CBM domain from V. cholerae nanH sialidase, and from S. pneumoniae nanA sialidase, using the trimerisation domain from the pseudaminidase protein from Pseudomonas aeruginosa was engineered as follows: the DNA fragments encoding the CBM of V. cholerae sialidase residues 25-216, and that of S. pneumoniae nanA sialidase residues 121-305, respectively, were modified at the 5′ and 3′ termini by PCR amplification using primer pairs (Table 3) to incorporate different restriction sites to link one or two copies of the CBM unit in tandem for subsequent ligation to the gene encoding the trimerization domain from P. aeruginosa pseudaminidase residues 333-438 (PaTD). The resulting fragments were cloned either into an appropriately digested pEHISTEV vector (for VcCBM fragments) or pEGFP-HISTEV vector (for SpCBM fragments) to create constructs designated as VcCBMTD, Vc2CBMTD, SpCBMTD and Sp2CBMTD, respectively (FIG. 1). […] All constructs were propagated in E. coli DH5a cells, and constructs were verified by DNA sequencing, before transforming the expression host E. coli BL21 Gold (DE3) for protein production. […]

[3] = target: Vc2CBMTD (two tandem CBMs of V. cholerae NanH sialidase, residues 25-216, SEQ ID NO: 2, fused to trimerisation domain of P. aeruginosa pseudaminidase, residues 333-438, SEQ ID NO: 6) (Vibrio cholerae serotype O1, UniProt A5F7A4); assay: Surface plasmon resonance (Biacore T-100): binding to immobilized multivalent, biotinylated α-2,3-sialyllactose-PAA; details: mean ± s.d. of three replicates
Source text: as §1, §2

[4] = target: Vc4CBM (tandem-repeat multivalent protein of four sialic acid binding domains of V. cholerae NanH sialidase, residues 25-216, SEQ ID NO: 2) (Vibrio cholerae, UniProt A5F7A4); assay: as above; details: mean ± s.d. of three replicates
Source text: as §1, §2

[5] = target: influenza virus haemagglutinin (HA) monomer (Influenza A virus, UniProt P03437); details: read-out: affinity for its receptor; cited from earlier work
[6] = read-out: ka (association ('on') rate constant), 15 °C
[7] = read-out: ka (association ('on') rate constant), 25 °C
[8] = read-out: ka (association ('on') rate constant), 37 °C
[9] = read-out: kd (dissociation ('off') rate constant), 15 °C
[10] = read-out: kd (dissociation ('off') rate constant), 25 °C
[11] = read-out: kd (dissociation ('off') rate constant), 37 °C

Row | Compound | kon [1, 6] [M⁻¹ s⁻¹] | kon [1, 7] [M⁻¹ s⁻¹] | kon [1, 8] [M⁻¹ s⁻¹] | koff [1, 9] [s⁻¹] | koff [1, 10] [s⁻¹] | koff [1, 11] [s⁻¹] | Kd [2] [µM] | kon [3, 6] [M⁻¹ s⁻¹] | kon [3, 7] [M⁻¹ s⁻¹] | kon [3, 8] [M⁻¹ s⁻¹] | koff [3, 9] [s⁻¹] | koff [3, 10] [s⁻¹] | koff [3, 11] [s⁻¹] | kon [4, 6] [M⁻¹ s⁻¹] | kon [4, 7] [M⁻¹ s⁻¹] | kon [4, 8] [M⁻¹ s⁻¹] | koff [4, 9] [s⁻¹] | koff [4, 10] [s⁻¹] | koff [4, 11] [s⁻¹] | Kd [5] [µM]
1 | CC(=O)N[C@H]1[C@H]([C@H](O)[C@H](O)CO)O[C@@](O[C@H]2[C@@H](O)[C@@H](CO)O[C@@H](O[C@H]3[C@H](O)[C@@H](O)C(O)O[C@@H]3CO)[C@@H]2O)(C(=O)O)C[C@@H]1O (stereo partly drawn) [α-2,3-sialyllactose] | 2.55e+06 ± 20000 | 7.24e+06 ± 60000 | 2.07e+07 ± 540000 | 0.0042 ± 2e-05 | 0.0124 ± 0.0001 | 0.107 | < 0.001 | 1.83e+06 ± 10000 | 1.73e+06 ± 10000 | 8.45e+06 ± 50000 | 0.00033 ± 1e-05 | 0.0007 ± 1e-05 | 0.00207 ± 1e-05 | 540000 ± 10000 | 3.56e+06 ± 20000 | 2.98e+06 ± 20000 | 0.00051 ± 1e-05 | 0.0016 ± 1e-05 | 0.00541 ± 4e-05 | 
2 | sialic acid |  |  |  |  |  |  |  |  |  |  |  |  |  |  |  |  |  |  |  | ~2500
